Measured values published in US20250353873A1, “COMPOUNDS AND METHODS FOR MODULATING APOE EXPRESSION” (Ionis Pharmaceuticals, Inc., priority 2024, published 2025).
Strand notation (5' to 3'): a small letter for the sugar, then the base; units joined by * are phosphorothioate-linked, units joined directly phosphodiester-linked; [ ] holds rarer units or linkages, { } end groups; capitals alone tell only the bases. [ms] = mesyl phosphoramidate linkage; e = 2'-O-(2-methoxyethyl) (MOE); [5mC] = 5-methylcytosine; d = 2'-deoxy (DNA)

System: human APOE RNA
Experiment: Activity in APOE 1549 knock-in mice, single ICV bolus, 2 weeks (Example 7)
Format: in vivo
Settings: single ICV bolus of 300 μg, two weeks post treatment, Table 17
Description: Modified oligonucleotides described above were tested in APOE knock-in mice.
APOE knock-in mice (model 41549) were obtained from Taconic Biosciences. APOE knock-in mice were divided into groups of 2 mice each. Each mouse received a single intracerebroventricular (ICV) bolus of 300 μg of modified oligonucleotide. A group of 4 mice received a single ICV bolus with PBS as a negative control.
Two weeks post treatment, mice were sacrificed and RNA was extracted from cortical brain tissue and spinal cord for quantitative real-time RT-PCR analysis of RNA expression of APOE using primer probe set RTS3073 (described herein above). APOE RNA levels were normalized to mouse Ppia. Mouse Ppia was amplified using primer probe set m_cyclo24 (forward sequence TCGCCGCTTGCTGCA, designated herein as SEQ ID NO: 16; reverse sequence ATCGGCCGTGATGTCGA, designated herein as SEQ ID NO: 17; probe sequence […], designated herein as SEQ ID NO: 18). Results are presented as percent human APOE RNA relative to the amount of human APOE RNA in PBS treated animals, (% control). Each experiment is identified in separate tables below.

1693105: 6-10-4 MOE gapmer CTTGGTGAATCTTTATTAAA, linkages sosssszzzssssszssss (e[5mC]*eTeT*eG*eG*eT*dG[ms]dA[ms]dA[ms]dT*d[5mC]*dT*dT*dT*dA[ms]dT*eT*eA*eA*eA) [compound 1693105]
APOE RNA (% control) Cortex (cortex): 51 % control
APOE RNA (% control) Spinal Cord (spinal cord): 38 % control
